Assay results: ChEMBL document CHEMBL5257023, “Identification of leads for antiproliferative activity on MDA-MB-435 human breast cancer cells through pharmacophore and CYP1A1-mediated metabolism” (Eur J Med Chem, 2016); call rule not given here
Where a name gives a salt, the structure may show the parent alone. Blank lines part the entries; values can stand above or below the compound they belong to.

Legend:
[1] = system: MCF7; assay: Anticancer activity against human MCF7 cells assessed as inhibition of cell growth; format: functional, cell-based
[2] = target: T1, CYP1A1 (Homo sapiens, UniProt P04798); assay: Inhibition of recombinant CYP1A1 (unknown origin) assessed as residual enzyme activity using 7-ethoxyresorufin as substrate at 0.1 uM incubated for 15 mins by resorufin dye based spectrofluorimetry (reference value: 100%); format: ADME; details: recombinant CYP1A1, probe 7-ethoxyresorufin, read-out: Activity
T1 sequence (P04798 whole entry): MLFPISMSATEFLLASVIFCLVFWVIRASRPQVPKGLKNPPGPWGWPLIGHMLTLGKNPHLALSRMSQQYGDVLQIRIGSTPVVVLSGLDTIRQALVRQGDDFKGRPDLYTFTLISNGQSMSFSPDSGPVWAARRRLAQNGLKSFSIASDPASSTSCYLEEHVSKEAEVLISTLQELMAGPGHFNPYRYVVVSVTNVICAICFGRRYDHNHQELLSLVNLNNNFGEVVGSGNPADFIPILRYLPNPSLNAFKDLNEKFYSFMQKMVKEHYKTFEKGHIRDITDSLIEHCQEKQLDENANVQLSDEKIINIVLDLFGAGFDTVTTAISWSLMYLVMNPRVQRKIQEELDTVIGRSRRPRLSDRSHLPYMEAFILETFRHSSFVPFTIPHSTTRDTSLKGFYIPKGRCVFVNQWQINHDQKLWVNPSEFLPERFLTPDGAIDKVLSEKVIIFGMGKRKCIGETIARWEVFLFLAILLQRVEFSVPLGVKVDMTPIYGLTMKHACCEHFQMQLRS

[3] = system: MDA-MB-435; assay: Anticancer activity against human MDA-MB-435 cells assessed as cell growth at 10 uM incubated for 48 hrs by SRB assay; format: functional; details: read-out: Activity
[4] = system: MDA-MB-435; assay: Anticancer activity against human MDA-MB-435 cells assessed as inhibition of cell growth incubated for 48 hrs by SRB assay; format: functional
[5] = system: MCF7; assay: Anticancer activity against human MCF7 cells assessed as inhibition of cell growth incubated for 48 hrs by SRB assay; format: functional; details: for CC50: read-out: LC50 (the source's name)
[6] = system: MDA-MB-435; assay: Anticancer activity against human MDA-MB-435 cells assessed as cell growth at 0.1 uM incubated for 48 hrs by SRB assay; format: functional; details: read-out: Activity
[7] = target: T2, Cytochrome P450 1A1 (Homo sapiens, UniProt P04798); assay: Inhibition of recombinant CYP1A1 (unknown origin) assessed as decrease in EROD activity using 7-ethoxyresorufin as substrate upto 100 uM incubated for 15 mins by resorufin dye based spectrofluorimetry; format: ADME; details: recombinant enzyme, 0.25 h
T2 sequence (P04798 whole entry): T1 sequence (P04798 whole entry)

[8] = system: MDA-MB-435; assay: Anticancer activity against human MDA-MB-435 cells assessed as cell growth at 100 uM incubated for 48 hrs by SRB assay; format: functional; details: read-out: Activity
[9] = system: MCF7; assay: Anticancer activity against human MCF7 cells assessed as cell growth at 10 uM incubated for 48 hrs by SRB assay; format: functional; details: read-out: Activity
[10] = system: NCI-H226; assay: Anticancer activity against human NCI-H226 cells assessed as cell growth at 100 uM incubated for 48 hrs by SRB assay; format: functional; details: read-out: Activity
[11] = system: NCI-H226; assay: Anticancer activity against human NCI-H226 cells assessed as inhibition of cell growth incubated for 48 hrs by SRB assay; format: functional
[12] = system: MCF7; assay: Anticancer activity against human MCF7 cells assessed as cell growth at 100 uM incubated for 48 hrs by SRB assay; format: functional; details: read-out: Activity
[13] = system: NCI-H226; assay: Anticancer activity against human NCI-H226 cells assessed as cell growth at 1 uM incubated for 48 hrs by SRB assay; format: functional; details: read-out: Activity
[14] = system: NCI-H226; assay: Anticancer activity against human NCI-H226 cells assessed as cell growth at 10 uM incubated for 48 hrs by SRB assay; format: functional; details: read-out: Activity
[15] = target: T1, CYP1A1; assay: Inhibition of recombinant CYP1A1 (unknown origin) assessed as residual enzyme activity using 7-ethoxyresorufin as substrate at 10 uM incubated for 15 mins by resorufin dye based spectrofluorimetry (reference value: 100%); format: ADME; details: recombinant CYP1A1, probe 7-ethoxyresorufin, read-out: Activity
[16] = target: T1, CYP1A1; assay: Inhibition of recombinant CYP1A1 (unknown origin) assessed as residual enzyme activity using 7-ethoxyresorufin as substrate at 0.01 uM incubated for 15 mins by resorufin dye based spectrofluorimetry (reference value: 100%); format: ADME; details: recombinant CYP1A1, probe 7-ethoxyresorufin, read-out: Activity
[17] = system: MCF7; assay: Anticancer activity against human MCF7 cells assessed as cell growth at 0.1 uM incubated for 48 hrs by SRB assay; format: functional; details: read-out: Activity
[18] = system: MDA-MB-435; assay: Anticancer activity against human MDA-MB-435 cells assessed as cell growth at 1 uM incubated for 48 hrs by SRB assay; format: functional; details: read-out: Activity
[19] = target: T1, CYP1A1; assay: Inhibition of recombinant CYP1A1 (unknown origin) assessed as residual enzyme activity using 7-ethoxyresorufin as substrate at 1 uM incubated for 15 mins by resorufin dye based spectrofluorimetry (reference value: 100%); format: ADME; details: recombinant CYP1A1, probe 7-ethoxyresorufin, read-out: Activity
[20] = target: T1, CYP1A1; assay: Inhibition of recombinant CYP1A1 (unknown origin) assessed as residual enzyme activity using 7-ethoxyresorufin as substrate at 100 uM incubated for 15 mins by resorufin dye based spectrofluorimetry (reference value: 100%); format: ADME; details: recombinant CYP1A1, probe 7-ethoxyresorufin, read-out: Activity
[21] = system: MCF7; assay: Anticancer activity against human MCF7 cells assessed as cell growth at 1 uM incubated for 48 hrs by SRB assay; format: functional; details: read-out: Activity
[22] = system: MDA-MB-468; assay: Anticancer activity against human MDA-MB-468 cells assessed as inhibition of cell growth incubated for 48 hrs by SRB assay; format: functional; details: for CC50: read-out: LC50 (the source's name)
[23] = target: T1, CYP1A1; assay: Inhibition of recombinant CYP1A1 (unknown origin) assessed as residual enzyme activity using 7-ethoxyresorufin as substrate at 50 uM incubated for 15 mins by resorufin dye based spectrofluorimetry (reference value: 100%); format: ADME; details: recombinant CYP1A1, probe 7-ethoxyresorufin, read-out: Activity
[24] = system: NCI-H226; assay: Anticancer activity against human NCI-H226 cells assessed as cell growth at 0.1 uM incubated for 48 hrs by SRB assay; format: functional; details: read-out: Activity
[25] = system: MDA-MB-468; assay: Anticancer activity against human MDA-MB-468 cells assessed as cell growth at 0.1 uM incubated for 48 hrs by SRB assay; format: functional; details: read-out: Activity
[26] = system: MDA-MB-468; assay: Anticancer activity against human MDA-MB-468 cells assessed as cell growth at 10 uM incubated for 48 hrs by SRB assay; format: functional; details: read-out: Activity
[27] = system: MDA-MB-468; assay: Anticancer activity against human MDA-MB-468 cells assessed as cell growth at 100 uM incubated for 48 hrs by SRB assay; format: functional; details: read-out: Activity
[28] = system: MDA-MB-468; assay: Anticancer activity against human MDA-MB-468 cells assessed as cell growth at 1 uM incubated for 48 hrs by SRB assay; format: functional; details: read-out: Activity

IC50 [1]: 0.0007 µM
SMILES: CCOc1ccc(-c2nc3cc(F)ccc3s2)cc1OCC

IC50 [1]: 0.49 µM
SMILES: COc1ccc(-c2nc3cc(F)ccc3s2)cc1

IC50 [1]: 20.7 µM
SMILES: Fc1ccc2sc(-c3ccc4c(c3)OCO4)nc2c1

IC50 [1]: 4.16 µM
SMILES: Oc1ccc(-c2nc3ccc(Br)cc3s2)cc1

IC50 [1]: 16 µM
SMILES: COc1cc(-c2nc3cc(F)ccc3o2)cc(OC)c1OC

IC50 [1]: 45.8 µM
SMILES: COc1ccc2nc(-c3ccc(O)cc3)sc2c1

IC50 [1]: 26.5 µM
SMILES: Oc1ccc(-c2nc3ccc(Cl)cc3s2)cc1

IC50 [1]: 13.8 µM
SMILES: Oc1ccc(-c2nc3cc(C(F)(F)F)ccc3s2)cc1

IC50 [1]: 0.57 µM
SMILES: Oc1cccc(-c2nc3cc(F)ccc3s2)c1

IC50 [1]: 0.4 µM
SMILES: Oc1ccc(-c2nc3cc(F)ccc3s2)cc1

IC50 [1]: 3.72 µM
SMILES: COc1cc(OC)cc(-c2nc3ccc(F)cc3o2)c1

IC50 [1]: 27.9 µM
SMILES: COc1ccc(-c2cc(=O)c3ccc(F)cc3o2)cc1OC

IC50 [1]: 58.1 µM
SMILES: COc1cccc(OC)c1-c1nc2cc(F)ccc2o1

IC50 [1]: 61.4 µM
SMILES: Fc1ccc2oc(-c3ccc4c(c3)OCO4)nc2c1

IC50 [1]: 35.1 µM
SMILES: COc1cccc(-c2nc3ccc(F)cc3o2)c1

IC50 [1]: 41 µM
SMILES: COc1ccc(-c2nc3ccc(F)cc3o2)cc1

IC50 [1]: 19.2 µM
SMILES: Fc1ccc2nc(-c3ccc4c(c3)OCO4)oc2c1

IC50 [1]: 83.4 µM
SMILES: COc1ccc(-c2cc(=O)c3cc(F)ccc3o2)cc1OC

IC50 [1]: 1.09 µM
SMILES: COc1cc(-c2nc3ccc(F)cc3o2)cc(OC)c1OC

IC50 [1]: 0.36 µM
SMILES: COc1ccccc1-c1nc2cc(F)ccc2o1

IC50 [1]: 39.5 µM
SMILES: COc1cccc(-c2nc3cc(F)ccc3o2)c1

IC50 [1]: 69.9 µM
SMILES: COc1ccc(-c2nc3ccc(F)cc3o2)c(OC)c1

IC50 [1]: 0.83 µM
SMILES: COc1ccc(-c2nc3cc(F)ccc3o2)cc1OC

IC50 [1]: 90.7 µM
SMILES: COc1cccc(OC)c1-c1nc2ccc(F)cc2o1

IC50 [1]: 62.3 µM
SMILES: CS(=O)(=O)c1ccc2nc(-c3ccc(O)cc3)sc2c1

IC50 [1]: 22.7 µM
SMILES: COc1ccc(-c2nc3cc(F)ccc3o2)cc1

IC50 [1]: 45.4 µM
SMILES: COc1cc(OC)cc(-c2nc3cc(F)ccc3o2)c1

IC50 [1]: 0.5 µM
SMILES: Cc1ccc(-c2nc3cc(F)ccc3s2)cc1O

IC50 [1]: 0.82 µM
SMILES: COc1ccccc1-c1nc2ccc(F)cc2s1

SMILES: NC(=O)c1c(NC(=O)Cc2ccc(F)cc2)sc2c1CCCC2
activity at 0.25 h, 0.1 µM [2]: 102% | growth at 10 µM [3]: 98.9% | GI50 [4]: > 100 µM | LC50 [4]: > 100 µM | TGI [4]: > 100 µM | GI50 [5]: 68.1 µM | TGI [5]: > 100 µM | CC50 [5]: > 100 µM | growth at 0.1 µM [6]: 99.7% | inhibition (INH) [7]: Not Active | growth at 100 µM [8]: 84.9% | growth at 10 µM [9]: 79.3% | growth at 100 µM [10]: 33% | GI50 [11]: 65.7 µM | LC50 (concentration killing 50% of cells) [11]: > 100 µM | TGI [11]: > 100 µM | growth at 100 µM [12]: 32.2% | growth at 1 µM [13]: 78.7% | growth at 10 µM [14]: 71.9% | activity at 0.25 h, 10 µM [15]: 102% | activity at 0.25 h, 0.01 µM [16]: 99.8% | growth at 0.1 µM [17]: 89.7% | growth at 1 µM [18]: 99.3% | activity at 0.25 h, 1 µM [19]: 100% | activity at 0.25 h, 100 µM [20]: 102% | growth at 1 µM [21]: 84.8% | GI50 [22]: 91 µM | TGI [22]: > 100 µM | CC50 [22]: > 100 µM | activity at 0.25 h, 50 µM [23]: 98.1% | growth at 0.1 µM [24]: 89.8%

IC50 [1]: 0.035 µM
SMILES: Cc1c(F)c(N)c2c(=O)cc(-c3ccc(N)c(F)c3)oc2c1F [AMINOFLAVONE]

SMILES: COc1cccc2c1C(=O)c1c(O)c3c(c(O)c1C2=O)C[C@@](O)(C(=O)CO)C[C@@H]3O[C@H]1C[C@H](N)[C@H](O)[C@H](C)O1 [DOXORUBICIN HYDROCHLORIDE]
growth at 0.1 µM [25]: 83% | growth at 10 µM [3]: -26.6% | GI50 [4]: < 0.1 µM | TGI [4]: 43.4 µM | GI50 [5]: < 0.1 µM | TGI [5]: 90.4 µM | CC50 [5]: > 100 µM | growth at 0.1 µM [6]: 50.8% | growth at 100 µM [8]: -30.9% | growth at 10 µM [26]: 22% | growth at 10 µM [9]: 10.5% | growth at 100 µM [10]: -38.3% | GI50 [11]: < 0.1 µM | TGI [11]: 43.2 µM | growth at 100 µM [12]: -1.6% | growth at 1 µM [13]: 12.7% | growth at 10 µM [14]: 8.1% | growth at 0.1 µM [17]: 28.5% | growth at 100 µM [27]: -60.9% | growth at 1 µM [18]: 42.8% | growth at 1 µM [28]: 64.5% | growth at 1 µM [21]: 17.2% | GI50 [22]: 10.5 µM | TGI [22]: 50.4 µM | CC50 [22]: 90.2 µM | growth at 0.1 µM [24]: 57.4%
